According to US10894786B2, “Substituted pyrazole derivatives as selective CDK12/13 inhibitors” (Aurigene Discovery Technologies Limited, priority 2018, dated 2021):
Where two headings read alike, the source gives them in different places.

How the values were obtained:
CDK7 = CDK7 (Homo sapiens (Human), UniProt P50613); assay: Biochemical assay for CDK7, LANCE TR-FRET; settings: read-out: CDK 7 IC50
Experimental: The inhibitory activity of the test compounds was assessed by the LANCE TR-FRET assay, which detects the ATP-dependent phosphorylation of an ULight-myelin basic protein (MBP) substrate peptide (100 nM) by CDK7 (10 nM). Briefly, the enzyme reaction was run in reaction buffer (20 mM HEPES (pH 7.5), 10 mM MgCl2, 0.01% Triton x, 100 μM Sodium Orthovanadate, 1 mM DTT). The assay was performed in 384-well plate. The end concentration of the ATP substrate was 1 mM/100 μM, and that of the ULight-MBP substrate peptide was 100 nM, and of CDK7 was 10 nM. Pre-incubation of the compound and enzyme was performed for 60 min at room temperature. After 60 min incubation at room temperature, the reaction was terminated by the addition of 40 mM EDTA and 1 nM Eu-labeled anti-phospho-MBP-binding protein antibody in the buffer. […] The readout was calculated as (acceptor counts/donor counts)×1000. The IC50 values were derived by fitting a sigmoidal dose-response curve to a plot of assay readout over inhibitor concentration.

CDK12 [1] = biological target: T1, CDK12 (Homo sapiens (Human), UniProt Q9NYV4); assay: Biochemical assay for CDK12 (IC50 determination), LANCE TR-FRET; settings: for IC50: ATP 100 μM, 60 min pre-incubation
Experimental: The inhibitory activity of the test compounds was assessed by the LANCE TR-FRET assay, which detects the ATP-dependent phosphorylation of an ULight-4E-BP1 (Thr37/Thr46) substrate peptide (100 nM) by CDK12 (30 nM). Briefly, the enzyme reaction was run in reaction buffer (25 mM HEPES (pH 7.5), 10 mM MgCl2, 0.01% BSA, 0.01% Triton x, 1 mM DTT). The assay was performed in 384-well plate format. The end concentration of the ATP substrate was 100 μM, and that of the ULight-4E-BP1 (Thr37/Thr46) substrate peptide was 100 nM, and of CDK12 was 30 nM. Pre-incubation of the compound and enzyme was performed for 60 min at room temperature. After 60 min incubation at room temperature, the reaction was terminated by the addition of 40 mM EDTA and 0.5 nM Eu-labeled anti-phospho-eIF4E-binding protein (Thr37/46) antibody in LANCE detection buffer. […] The readout was calculated as (acceptor counts/donor counts)×1000. The IC50 values were derived by fitting a sigmoidal dose-response curve to a plot of assay readout over inhibitor concentration.
Target sequence in this assay (Q9NYV4 whole entry, looked up, species assumed): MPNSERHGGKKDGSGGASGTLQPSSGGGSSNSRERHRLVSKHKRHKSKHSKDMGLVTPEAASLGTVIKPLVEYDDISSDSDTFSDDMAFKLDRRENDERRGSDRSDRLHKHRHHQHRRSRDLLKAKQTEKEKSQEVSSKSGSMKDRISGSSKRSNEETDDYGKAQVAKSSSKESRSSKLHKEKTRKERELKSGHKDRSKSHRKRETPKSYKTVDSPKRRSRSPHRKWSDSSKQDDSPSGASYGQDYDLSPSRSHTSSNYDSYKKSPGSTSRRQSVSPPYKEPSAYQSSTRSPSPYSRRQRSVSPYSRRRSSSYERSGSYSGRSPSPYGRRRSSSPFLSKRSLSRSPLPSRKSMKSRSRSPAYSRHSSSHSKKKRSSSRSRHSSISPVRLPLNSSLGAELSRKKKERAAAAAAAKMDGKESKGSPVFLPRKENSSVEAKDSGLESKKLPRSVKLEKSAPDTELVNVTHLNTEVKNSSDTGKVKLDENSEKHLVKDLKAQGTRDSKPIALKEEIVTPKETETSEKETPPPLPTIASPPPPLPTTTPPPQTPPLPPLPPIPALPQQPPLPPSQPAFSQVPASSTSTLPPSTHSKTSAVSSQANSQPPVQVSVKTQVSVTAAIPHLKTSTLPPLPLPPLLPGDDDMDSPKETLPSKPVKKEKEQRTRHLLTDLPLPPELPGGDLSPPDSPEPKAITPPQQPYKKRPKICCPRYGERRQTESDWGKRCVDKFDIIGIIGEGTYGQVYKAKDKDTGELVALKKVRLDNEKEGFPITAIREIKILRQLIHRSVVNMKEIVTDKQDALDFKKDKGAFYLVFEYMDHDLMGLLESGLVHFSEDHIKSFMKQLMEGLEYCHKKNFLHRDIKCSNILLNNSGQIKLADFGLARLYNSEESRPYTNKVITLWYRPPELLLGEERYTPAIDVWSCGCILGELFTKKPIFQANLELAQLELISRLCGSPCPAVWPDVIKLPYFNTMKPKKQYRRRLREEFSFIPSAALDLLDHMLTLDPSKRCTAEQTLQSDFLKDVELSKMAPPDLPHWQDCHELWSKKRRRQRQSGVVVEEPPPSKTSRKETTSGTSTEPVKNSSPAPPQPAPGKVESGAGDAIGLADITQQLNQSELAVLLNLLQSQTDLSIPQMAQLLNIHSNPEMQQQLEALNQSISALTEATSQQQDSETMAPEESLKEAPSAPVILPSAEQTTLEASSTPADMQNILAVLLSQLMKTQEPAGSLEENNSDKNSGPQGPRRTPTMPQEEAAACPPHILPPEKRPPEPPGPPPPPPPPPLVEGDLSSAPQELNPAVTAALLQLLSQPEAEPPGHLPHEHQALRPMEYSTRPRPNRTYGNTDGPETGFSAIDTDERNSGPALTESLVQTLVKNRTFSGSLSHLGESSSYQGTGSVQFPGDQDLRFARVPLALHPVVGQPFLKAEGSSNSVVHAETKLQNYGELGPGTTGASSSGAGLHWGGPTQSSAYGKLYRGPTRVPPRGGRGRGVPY
Target sequence in this assay (O75909 whole entry partner, looked up, species assumed): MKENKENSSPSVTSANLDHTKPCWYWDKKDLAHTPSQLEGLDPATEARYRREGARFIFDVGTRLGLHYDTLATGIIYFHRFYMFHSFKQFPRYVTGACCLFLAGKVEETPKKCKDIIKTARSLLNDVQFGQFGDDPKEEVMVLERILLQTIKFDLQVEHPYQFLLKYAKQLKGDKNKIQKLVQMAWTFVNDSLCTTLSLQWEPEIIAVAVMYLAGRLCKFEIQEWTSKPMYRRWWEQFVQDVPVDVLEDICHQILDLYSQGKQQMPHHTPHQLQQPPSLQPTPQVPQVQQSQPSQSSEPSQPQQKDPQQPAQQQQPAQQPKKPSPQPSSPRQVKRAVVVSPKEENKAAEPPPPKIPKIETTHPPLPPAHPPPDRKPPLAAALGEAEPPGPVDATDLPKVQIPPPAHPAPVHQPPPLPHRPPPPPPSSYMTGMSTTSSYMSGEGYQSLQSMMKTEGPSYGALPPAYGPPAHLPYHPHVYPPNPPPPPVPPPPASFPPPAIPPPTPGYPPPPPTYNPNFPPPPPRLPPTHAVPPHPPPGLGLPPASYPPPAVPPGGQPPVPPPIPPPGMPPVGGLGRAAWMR

CDK13 = CDK13 (Homo sapiens (Human), UniProt Q14004); assay: Biochemical assay for CDK13, LanthaScreen Eu Kinase Binding Assay; settings: for IC50: kinase tracer 236 100 nM; for Ratio CDK7/CDK13: ratio of IC50
Text: Binding of an inhibitor to the kinase competes for binding with the tracer, resulting in a loss of FRET signal.

CDK12 [2] = biological target: T1, CDK12; assay: Biochemical assay for CDK12 (Kd determination), kinase-tagged phage/qPCR competition binding
Experimental: Kinase-tagged T7 phage strains were grown in parallel in 24-well blocks in an E. coli host derived from the BL21 strain. E. coli were grown to log-phase and infected with T7 phage from a frozen stock (multiplicity of infection=0.4) and incubated with shaking at 32° C. until lysis (90-150 minutes). The lysates were centrifuged (6,000×g) and filtered (0.2 μm) to remove cell debris. The remaining kinases were produced in HEK-293 cells and subsequently tagged with DNA for qPCR detection. […] The liganded beads were blocked with excess biotin and washed with blocking buffer (SeaBlock (Pierce), 1% BSA, 0.05% Tween 20, 1 mM DTT) to remove unbound ligand and to reduce non-specific phage binding. […] Test compounds were prepared as 40× stocks in 100% DMSO and directly diluted into the assay. All reactions were performed in polypropylene 384-well plates in a final volume of 0.02 ml. […] The kinase concentration in the eluates was measured by qPCR.
Target sequence in this assay (Q9NYV4 whole entry, species assumed): as the sequence (Q9NYV4 whole entry, looked up, species assumed) above

CDK12 [3] = biological target: T1, CDK12; assay: CDK12 plate based target engagement assay in Jurkat cells; type: cell-based
Experimental: Jurkat cells were treated with varying concentrations of the compound for 6 hours. The DMSO concentration was maintained at 0.1%. Cells were harvested and lysed. 200 μg of the lysate was incubated with 1 μM Bio-THZ531 in the presence of 1 mM DTT and incubated on a rocker at 4° C. overnight. 100 μL of this sample was added to pre-washed streptavidin coated plates and incubated at room temperature on a rocker for 2 hours. The plates were washed and incubated with CDK12 antibody for overnight at 4° C. Next day the plate was washed and incubated for 2 hours with HRP labelled anti rabbit secondary antibody. Bio-THZ531 bound CDK12 was determined using TMB substrate. […] Percentage CDK12 occupancy with the test compound was calculated over untreated control. Occupancy 50 was calculated by fitting the dose response data to sigmoidal curve fitting equation using GraphPad Prism software V5.
Target sequence in this assay (Q9NYV4 whole entry, looked up): as the sequence (Q9NYV4 whole entry, looked up, species assumed) above
Target sequence in this assay (O75909 whole entry partner, looked up): as the sequence (O75909 whole entry partner, looked up, species assumed) above

[4] = ATP 1 mM/100 μM, 60 min pre-incubation

Sequence of CDK7 (P50613 whole entry, looked up, species assumed): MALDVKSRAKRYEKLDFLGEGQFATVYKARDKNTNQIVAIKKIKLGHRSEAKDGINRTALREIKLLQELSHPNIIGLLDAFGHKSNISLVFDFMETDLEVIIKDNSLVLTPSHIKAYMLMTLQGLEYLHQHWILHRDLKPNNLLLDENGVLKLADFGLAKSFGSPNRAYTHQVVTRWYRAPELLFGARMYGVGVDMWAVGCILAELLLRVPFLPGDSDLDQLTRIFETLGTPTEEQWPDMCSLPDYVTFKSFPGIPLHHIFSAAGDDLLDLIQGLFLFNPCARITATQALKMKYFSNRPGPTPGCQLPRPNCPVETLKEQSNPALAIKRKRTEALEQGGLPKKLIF
Sequence of CDK7 (P51946 whole entry partner, looked up, species assumed): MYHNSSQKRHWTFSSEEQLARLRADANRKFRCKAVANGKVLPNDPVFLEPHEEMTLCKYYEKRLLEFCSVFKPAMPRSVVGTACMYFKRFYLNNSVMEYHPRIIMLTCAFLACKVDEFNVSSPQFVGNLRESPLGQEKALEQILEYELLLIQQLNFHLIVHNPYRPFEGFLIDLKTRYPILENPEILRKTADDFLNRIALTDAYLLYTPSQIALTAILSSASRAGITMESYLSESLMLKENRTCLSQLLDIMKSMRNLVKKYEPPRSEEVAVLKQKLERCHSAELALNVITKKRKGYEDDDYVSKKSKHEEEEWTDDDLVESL
Sequence of CDK7 (P51948 whole entry partner, looked up, species assumed): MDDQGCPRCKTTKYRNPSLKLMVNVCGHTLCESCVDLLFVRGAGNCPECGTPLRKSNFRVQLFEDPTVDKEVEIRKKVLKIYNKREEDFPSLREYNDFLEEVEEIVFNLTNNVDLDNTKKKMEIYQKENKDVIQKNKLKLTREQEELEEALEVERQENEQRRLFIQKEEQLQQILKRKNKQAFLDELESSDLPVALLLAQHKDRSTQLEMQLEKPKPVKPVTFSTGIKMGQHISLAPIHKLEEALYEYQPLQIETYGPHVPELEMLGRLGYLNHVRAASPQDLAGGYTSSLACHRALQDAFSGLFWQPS
Sequence of CDK13 (Q14004 whole entry, looked up, species assumed): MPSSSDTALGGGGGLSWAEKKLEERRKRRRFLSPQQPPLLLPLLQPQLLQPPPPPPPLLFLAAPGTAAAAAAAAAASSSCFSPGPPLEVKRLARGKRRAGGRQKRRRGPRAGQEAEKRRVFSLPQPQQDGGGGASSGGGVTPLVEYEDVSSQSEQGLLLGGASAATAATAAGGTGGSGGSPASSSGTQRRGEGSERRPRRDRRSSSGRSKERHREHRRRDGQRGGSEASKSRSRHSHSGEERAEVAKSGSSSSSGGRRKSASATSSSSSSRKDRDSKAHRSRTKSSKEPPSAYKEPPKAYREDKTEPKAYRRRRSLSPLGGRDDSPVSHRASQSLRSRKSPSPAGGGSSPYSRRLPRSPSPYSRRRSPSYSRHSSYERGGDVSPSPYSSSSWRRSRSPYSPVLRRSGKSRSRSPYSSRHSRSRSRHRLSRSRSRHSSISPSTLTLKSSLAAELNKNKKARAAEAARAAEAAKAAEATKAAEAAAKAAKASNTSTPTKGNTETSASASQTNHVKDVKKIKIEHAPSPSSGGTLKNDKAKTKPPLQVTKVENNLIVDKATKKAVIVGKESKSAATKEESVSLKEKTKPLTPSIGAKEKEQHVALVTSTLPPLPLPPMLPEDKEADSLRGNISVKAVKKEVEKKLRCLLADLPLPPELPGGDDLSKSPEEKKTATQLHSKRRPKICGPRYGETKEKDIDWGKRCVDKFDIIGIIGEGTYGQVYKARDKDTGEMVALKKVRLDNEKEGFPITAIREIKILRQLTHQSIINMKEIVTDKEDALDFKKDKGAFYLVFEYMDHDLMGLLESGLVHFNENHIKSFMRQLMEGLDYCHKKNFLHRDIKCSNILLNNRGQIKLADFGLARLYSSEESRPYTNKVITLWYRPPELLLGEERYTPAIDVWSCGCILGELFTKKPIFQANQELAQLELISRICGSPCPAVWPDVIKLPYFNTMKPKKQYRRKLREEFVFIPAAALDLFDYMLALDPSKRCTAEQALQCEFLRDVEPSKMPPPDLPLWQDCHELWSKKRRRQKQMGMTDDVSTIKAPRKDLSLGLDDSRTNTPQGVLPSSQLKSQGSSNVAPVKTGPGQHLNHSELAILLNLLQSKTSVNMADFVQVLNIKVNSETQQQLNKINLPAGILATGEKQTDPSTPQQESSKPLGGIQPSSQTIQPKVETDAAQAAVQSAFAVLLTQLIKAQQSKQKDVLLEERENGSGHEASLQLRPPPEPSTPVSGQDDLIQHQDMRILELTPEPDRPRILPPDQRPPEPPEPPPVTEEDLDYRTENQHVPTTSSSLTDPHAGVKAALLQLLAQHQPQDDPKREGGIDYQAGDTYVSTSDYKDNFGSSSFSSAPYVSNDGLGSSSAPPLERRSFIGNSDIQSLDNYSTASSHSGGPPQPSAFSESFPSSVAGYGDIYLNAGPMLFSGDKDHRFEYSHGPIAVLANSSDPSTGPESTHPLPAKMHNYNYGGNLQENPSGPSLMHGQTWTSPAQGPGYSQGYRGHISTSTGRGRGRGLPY
Sequence of CDK13 (O75909 whole entry partner, looked up, species assumed): as the sequence (O75909 whole entry partner, looked up, species assumed) above

| SMILES | IC50 (CDK7; [4]) [nM] | IC50 (CDK12 [1]) [nM] | IC50 (CDK13) [nM] | Kd (CDK12 [2]) [nM] | IC50 (CDK7) [nM] | Ratio CDK7/CDK13 (CDK13) | CDK12 Target Occupancy (Tocc50) μM in Jurkat cells (CDK12 [3]) [µM] | Ratio CDK7/CDK12 (CDK12 [1]) | CDK12 Target Occupancy (Tocc50) μM in Jurkat cells (CDK12 [3]; Jurkat cells, 6 hours) [µM] |
| --- | --- | --- | --- | --- | --- | --- | --- | --- | --- |
| C=CC(=O)NC1CCC(c2ccc(C(C)C(=O)Nc3cc(C4CC4)n[nH]3)cc2)CC1 (single isomer, unassigned) [Compound 10, N-(4-(4-(1-((5-cyclopropyl-1H-pyrazol-3-yl)amino)-1-oxopropan-2-yl)phenyl)cyclohexyl)acrylamide] | 5490 | 740 | 18 | < 25 |  |  |  |  |  |
| C#CC(=O)N1CC=C(c2ccc(C(C)C(=O)Nc3cc(C4CC4)[nH]n3)cn2)CC1 (stereo not drawn) [Compound 50, N-(5-cyclopropyl-1H-pyrazol-3-yl)-2-(1′-propioloyl-1′,2′,3′,6′-tetrahydro-[2,4′-bipyridin]-5-yl)propanamide] |  |  | 7 |  | 12 | 1.71 | 0.038 |  |  |
| C=CC(=O)N1CC=C(c2ccc(C(C)C(=O)Nc3cc(C4CC4)[nH]n3)cn2)CC1 (single isomer, unassigned) [Compound 5, 2-(1′-acryloyl-1′,2′,3′,6′-tetrahydro-[2,4′-bipyridin]-5-yl)-N-(5-cyclopropyl-1H-pyrazol-3-yl)propanamide] | > 10000 | 1310 | 77 | 25 to 100 |  | 129.87 |  | 7.64 |  |
| C=CC(=O)N1CC=C(c2ccc(C(C)C(=O)Nc3cc(C4CC4)[nH]n3)cn2)C1 (stereo not drawn) [Compound 46, 2-(6-(1-acryloyl-2,5-dihydro-1H-pyrrol-3-yl)pyridin-3-yl)-N-(5-cyclopropyl-1H-pyrazol-3-yl)propanamide] |  | 32 | 6.9 |  |  |  |  |  | 0.003 |
| C=CC(=O)N1CCN(c2ccc(C(C)C(=O)Nc3cc(C4CC4)[nH]n3)cn2)CC1 (stereo not drawn) [Compound 20, 2-(6-(4-acryloylpiperazin-1-yl)pyridin-3-yl)-N-(5-cyclopropyl-1H-pyrazol-3-yl)propanamide] | 2090 | 99 | 94 | < 25 |  | 22.23 |  | 21.11 |  |
| C=CC(=O)N1CC=C(c2ccc(CC(=O)Nc3cc(C4CC4)[nH]n3)cn2)C1 [Compound 53, 2-(6-(1-acryloyl-2,5-dihydro-1H-pyrrol-3-yl)pyridin-3-yl)-N-(5-cyclopropyl-1H-pyrazol-3-yl)acetamide] | 7790 | 10 | 0.9 |  |  | 8655.55 |  | 779 | 0.014 |
| C#CC(=O)N1CCC=C(c2ccc(CC(=O)Nc3cc(C4CC4)[nH]n3)cn2)C1 [Compound 58, N-(5-cyclopropyl-1H-pyrazol-3-yl)-2-(1′-propioloyl-1′,2′,5′,6′-tetrahydro-[2,3′-bipyridin]-5-yl)acetamide] |  | 49 | 84 |  |  |  |  |  | 0.0097 |
| C=CC(=O)N1CCC=C(c2ccc(C(C)C(=O)Nc3cc(C4CC4)[nH]n3)cc2)CC1 (stereo not drawn) [Compound 9, 2-(4-(1-acryloyl-2,3,6,7-tetrahydro-1H-azepin-4-yl)phenyl)-N-(5-cyclopropyl-1H-pyrazol-3-yl)propanamide] | 6580 | 240 | 21 | 25 to 100 |  | 313.57 |  | 27.43 |  |
| C=CC(=O)NC1CCC(c2ccc(C(C)C(=O)Nc3cc(C4CC4)n[nH]3)cc2)CC1 (single isomer, unassigned) [Compound 11, N-(4-(4-(1-((5-cyclopropyl-1H-pyrazol-3-yl)amino)-1-oxopropan-2-yl)phenyl)cyclohexyl)acrylamide] | 3650 | 1020 | 45 | 25 to 100 |  |  |  |  |  |
| C=CC(=O)N1CC=C(c2ccc(C(C)C(=O)Nc3cc(C4CC4)[nH]n3)cc2F)CC1 (stereo not drawn) [Compound 44, 2-(4-(1-acryloyl-1,2,3,6-tetrahydropyridin-4-yl)-3-fluorophenyl)-N-(5-cyclopropyl-1H-pyrazol-3-yl)propanamide] | 880 | 9 | 5.8 |  |  | 151.72 |  | 97.77 | 0.009 |
| CC#CC(=O)N1CCC=C(c2ccc(C(C)C(=O)Nc3cc(C4CC4)[nH]n3)cn2)C1 (stereo not drawn) [Compound 52, 2-(1′-(but-2-ynoyl)-1′,2′,5′,6′-tetrahydro-[2,3′-bipyridin]-5-yl)-N-(5-cyclopropyl-1H-pyrazol-3-yl)propanamide] | 2190 | 227 | 19 |  |  | 115.26 |  | 9.64 | 0.179 |
| C=CC(=O)N1CC=C(c2ccc(C(C)C(=O)Nc3cc(C4CC4)[nH]n3)cn2)CC1 (stereo not drawn) [Compound 4, 2-(1′-acryloyl-1′,2′,3′,6′-tetrahydro-[2,4′-bipyridin]-5-yl)-N-(5-cyclopropyl-1H-pyrazol-3-yl)propanamide] | 1710 | 72 | 3 | < 25 |  | 570.0 |  | 23.75 |  |
| N#CN1CCC=C(c2ccc(CC(=O)Nc3cc(C4CC4)[nH]n3)cn2)C1 [Compound 61, 2-(1′-cyano-1′,2′,5′,6′-tetrahydro-[2,3′-bipyridin]-5-yl)-N-(5-cyclopropyl-1H-pyrazol-3-yl)acetamide] |  | 6 |  |  |  |  |  |  | 0.007 |
| C#CC(=O)N1CC=C(c2ccc(CC(=O)Nc3cc(C4CC4)[nH]n3)cn2)C1 [Compound 60, N-(5-cyclopropyl-1H-pyrazol-3-yl)-2-(6-(1-propioloyl-2,5-dihydro-1H-pyrrol-3-yl)pyridin-3-yl)acetamide] |  | 12 |  |  |  |  |  |  | 0.0088 |
| C=CC(=O)N1CCN(c2ccc(C(C)C(=O)Nc3cc(C4CC4)[nH]n3)cc2)CC1 (single isomer, unassigned) [Compound 18, 2-(4-(4-acryloylpiperazin-1-yl)phenyl)-N-(5-cyclopropyl-1H-pyrazol-3-yl)propanamide] | 2320 | 238 | 11.7 | 25 to 100 |  |  |  |  |  |
| C=CC(=O)N1CC=C(c2ccc(C(C(=O)Nc3cc(C4CC4)[nH]n3)C(C)C)cn2)CC1 (stereo not drawn) [Compound 7, 2-(1′-acryloyl-1′,2′,3′,6′-tetrahydro-[2,4′-bipyridin]-5-yl)-N-(5-cyclopropyl-1H-pyrazol-3-yl)-3-methylbutanamide] | 744 |  | 398 | > 100 |  | 1.86 |  |  |  |
| C=CC(=O)N1CCC=C(c2ccc(C(C)C(=O)Nc3cc(C4CC4)[nH]n3)cn2)C1 (stereo not drawn) [Compound 35, 2-(1′-acryloyl-1′,2′,5′,6′-tetrahydro-[2,3′-bipyridin]-5-yl)-N-(5-cyclopropyl-1H-pyrazol-3-yl)propanamide] | 153 | 30 | 6 | < 25 |  | 25.5 |  | 5.1 |  |
